Test results taken from US20140308317A1, “Polymeric Compounds And Methods Of Making And Using The Same” (CELLCEUTIX CORPORATION, priority 2012, published 2014).
Converted amounts (≈) assume the structure as drawn.

Experiments:
[1] = test system: Pseudomonas aeruginosa ATCC 10145; experiment: Minimum Inhibitory Concentration (MIC), modified microbroth dilution; type: cell-based; details: Pseudomonas aeruginosa, ATCC10145; P. aeruginosa (10145); overnight incubation (18 hours); read-out: MIC50 P. Aeruginosa
[2] = test system: E. Coli ATCC 25922; experiment: as above; type: cell-based; details: Escherichia coli, ATCC25922; E. coli (25922); overnight incubation (18 hours); read-out: MIC50 E. coli
[3] = test system: Staphylococcus aureus ATCC 27660; experiment: as above; type: cell-based; details: Staphylococcus aureus, ATCC27660; S. aureus (27660); overnight incubation (18 hours); read-out: MIC50 S. aureus
[4] = Cytotoxicity colorimetric (tetrazolium) assay; type: cell-based, mouse; details: mouse, NIH/3T3 cells (CRL-1658), NIH/3T3 cells; one hour with compound in serum-free media
Protocol: (§1) Cytotoxicity of the compounds was evaluated in a colorimetric assay using a transformed human liver cell line (HepG2, HB-8065) and an embryonic mouse cell line (NIH/3T3 cells, CRL-1658). This assay measures the bioreduction of a novel tetrazolium compound to a soluble formazan product by viable cells. HepG2 cells were seeded in 96 well plates at 2×10^4 cells/well in MEM medium with 10% fetal bovine serum (FBS) 24 hours prior to use. NIH/3T3 cells were seeded in 96 well plates at 2×10^4 cells/well in DMEM medium with 10% bovine calf serum (BCS) 24 hours prior to use. Cell monolayers were rinsed in serum-free media and incubated for one hour with compounds in serum-free media. After incubation, the media is replaced with serum supplemented media and live cells were measured using the Cell Titer 96 Aqueous […] Assay kit (Promega, Madison, Wis.). EC50 values were determined using a four parameter logistic equation: Y=Bottom+(Top-Bottom)/(1+10̂((LogEC50−X)*HillSlope)).
(§2) Actual results from a representative cytotoxicity assay are shown below in Table 2. Data is expressed as EC50 in μg/mL.

[5] = test system: Klebsiella pneumoniae ATCC 13883; experiment: Minimum Inhibitory Concentration (MIC), modified microbroth dilution; type: cell-based; details: Klebsiella pneumoniae, ATCC13883; K. pneumoniae (13883); overnight incubation (18 hours); read-out: MIC50 K. Pnuemnoiae
[6] = test system: Enterococcus faecalis ATCC 29212; experiment: as above; type: cell-based; details: Enterococcus faecalis, ATCC29212; E. faecalis (29212); overnight incubation (18 hours); read-out: MIC50 E. faecalis
[7] = Cytotoxicity colorimetric (tetrazolium) assay; type: cell-based, human; details: human, HepG2 cells (HB-8065), HepG2 cells; one hour with compound in serum-free media
Protocol: as §1, §2

SMILES | MIC50 [1] | MIC50 [2] | MIC50 [3] | MIC50 [5] | MIC50 [6] | EC50 at 1 h [4] | EC50 at 1 h [7]
N=C(N)NCCc1cc(CCNC(=N)N)cc(-c2cccc(-c3cc(CCNC(=N)N)cc(CCNC(=N)N)c3)c2)c1 [Compound 116] | 25 µg/mL (≈ 43.8 µM) | 6.25 µg/mL (≈ 11 µM) | 6.25 µg/mL (≈ 11 µM) | 25 µg/mL (≈ 43.8 µM) | 25 µg/mL (≈ 43.8 µM) | 676 µg/mL (≈ 1180 µM) | 974 µg/mL (≈ 1710 µM)
NCCc1cccc(-c2cc(-c3cccc(-c4cc(-c5cccc(CCN)c5)on4)c3)no2)c1 [Compound 128] | 25 µg/mL (≈ 55.5 µM) | 12.5 µg/mL (≈ 27.7 µM) | 1.56 µg/mL (≈ 3.46 µM) | 25 µg/mL (≈ 55.5 µM) | 1.56 µg/mL (≈ 3.46 µM) | 22.3 µg/mL (≈ 49.5 µM) | 47 µg/mL (≈ 104 µM)
N=C(N)NCCc1cccc(-c2cc(-c3cccc(-c4cc(-c5cccc(CCNC(=N)N)c5)on4)c3)no2)c1 [Compound 129] | 25 µg/mL (≈ 46.8 µM) | 25 µg/mL (≈ 46.8 µM) | 0.78 µg/mL (≈ 1.46 µM) | 12.5 to 25 µg/mL (≈ 23.4 to 46.8 µM) | 3.13 µg/mL (≈ 5.85 µM) | 35.8 µg/mL (≈ 66.9 µM) | 57 µg/mL (≈ 107 µM)
NCCc1cccc(-c2coc(-c3cccc(-c4nc(-c5cccc(CCN)c5)co4)c3)n2)c1 [Compound 132] | 25 µg/mL (≈ 55.5 µM) | 12.5 µg/mL (≈ 27.7 µM) | 12.5 µg/mL (≈ 27.7 µM) | 25 µg/mL (≈ 55.5 µM) | 12.5 µg/mL (≈ 27.7 µM) | 23.5 µg/mL (≈ 52.1 µM) | 50.1 µg/mL (≈ 111 µM)
NCCc1cccc(-c2coc(-c3cccc(-c4ncco4)c3)n2)c1 [Compound 133] | > 50 µg/mL | > 50 µg/mL | 50 µg/mL (≈ 151 µM) | > 50 µg/mL | 25 µg/mL (≈ 75.4 µM) | 70.2 µg/mL (≈ 212 µM) | 130 µg/mL (≈ 392 µM)
N=C(N)NCCc1cccc(-c2coc(-c3cccc(-c4nc(-c5cccc(CCNC(=N)N)c5)co4)c3)n2)c1 [Compound 134] | 25 µg/mL (≈ 46.8 µM) | 12.5 µg/mL (≈ 23.4 µM) | 0.78 µg/mL (≈ 1.46 µM) | 50 µg/mL (≈ 93.5 µM) | 12.5 µg/mL (≈ 23.4 µM) | 33.4 µg/mL (≈ 62.5 µM) | 70.9 µg/mL (≈ 133 µM)
NCCc1cc(CCN)cc(-c2csc(-c3cccc(-c4nc(-c5cc(CCN)cc(CCN)c5)cs4)c3)n2)c1 [Compound 135] | 25 µg/mL (≈ 44 µM) | 50 µg/mL (≈ 87.9 µM) | 6.25 µg/mL (≈ 11 µM) | > 50 µg/mL | > 50 µg/mL | 34.5 µg/mL (≈ 60.6 µM) | 134 µg/mL (≈ 236 µM)
NCCc1cc(CCN)cc(-c2csc(-c3cccc(-c4nccs4)c3)n2)c1 [Compound 136] | 50 µg/mL (≈ 123 µM) | > 50 µg/mL | 25 µg/mL (≈ 61.5 µM) | 50 µg/mL (≈ 123 µM) | 50 µg/mL (≈ 123 µM) | 250 µg/mL (≈ 615 µM) | 4.12 µg/mL (≈ 10.1 µM)
NCCCOc1cc(OCCCN)cc(-c2ccc3c(c2)C(=O)c2cccc(-c4cc(OCCCN)cc(OCCCN)c4)c2CC3)c1 [Compound 155] | 25 µg/mL (≈ 38.3 µM) | > 50 µg/mL | 1.56 µg/mL (≈ 2.39 µM) | > 50 µg/mL | > 50 µg/mL | 177 µg/mL (≈ 271 µM) | 330 µg/mL (≈ 505 µM)
N=C(N)NCCCc1cccc(-c2ccc3c4ccc(-c5cccc(CCCNC(=N)N)c5)cc4n(CCCNC(=N)N)c3c2)c1 [Compound 158] | 25 µg/mL (≈ 40.5 µM) | 3.13 µg/mL (≈ 5.07 µM) | 1.56 µg/mL (≈ 2.53 µM) | 3.13 µg/mL (≈ 5.07 µM) | 6.25 µg/mL (≈ 10.1 µM) | 131 µg/mL (≈ 212 µM) | 100 µg/mL (≈ 162 µM)
NCCCn1c2cc(-c3cccc(N)c3)ccc2c2ccc(-c3cccc(N)c3)cc21 [Compound 159] | 100 µg/mL (≈ 246 µM) | 12.5 µg/mL (≈ 30.7 µM) | 1.56 µg/mL (≈ 3.84 µM) | 12.5 µg/mL (≈ 30.7 µM) | 12.5 µg/mL (≈ 30.7 µM) | 45.7 µg/mL (≈ 112 µM) | 64.7 µg/mL (≈ 159 µM)
NCCCOc1cc(OCCCN)cc(-c2ccc(C(=O)c3ccc(-c4cc(OCCCN)cc(OCCCN)c4)cc3)cc2)c1 [Compound 165] | 25 µg/mL (≈ 39.9 µM) | 50 µg/mL (≈ 79.8 µM) | 6.25 µg/mL (≈ 9.97 µM) | > 50 µg/mL | 25 µg/mL (≈ 39.9 µM) | 357 µg/mL (≈ 570 µM) | 355 µg/mL (≈ 566 µM)
O=C(c1cc(C(=O)N2CCNCC2)cc(-c2ccc3sc4ccc(-c5cc(C(=O)N6CCNCC6)cc(C(=O)N6CCNCC6)c5)cc4c3c2)c1)N1CCNCC1 [Compound 170] | > 100 µg/mL | > 100 µg/mL | > 100 µg/mL | > 100 µg/mL | > 100 µg/mL | 436 µg/mL (≈ 555 µM) | > 1000 µg/mL
NCCc1cc(C#Cc2cc(C#Cc3cc(CCN)cc(CCN)c3)c(F)cc2F)cc(CCN)c1 [Compound 192] | 50 µg/mL (≈ 103 µM) | 12.5 µg/mL (≈ 25.7 µM) | 3.13 µg/mL (≈ 6.43 µM) | > 50 µg/mL | 12.5 µg/mL (≈ 25.7 µM) | 542 µg/mL (≈ 1110 µM) | 554 µg/mL (≈ 1140 µM)
NCCc1ccc(C#Cc2cccc(C#Cc3ccc(CCN)c(CCN)c3)c2)cc1CCN [Compound 194] | 12.5 µg/mL (≈ 27.7 µM) | 12.5 µg/mL (≈ 27.7 µM) | 1.56 µg/mL (≈ 3.46 µM) | > 50 µg/mL | 6.25 µg/mL (≈ 13.9 µM) | 154 µg/mL (≈ 342 µM) | 192 µg/mL (≈ 426 µM)

Further lines, with some results ahead:

MIC50 [1] | MIC50 [2] | MIC50 [3] | MIC50 [5] | MIC50 [6] | SMILES | EC50 at 1 h [4] | EC50 at 1 h [7]
12.5 µg/mL (≈ 17 µM) | 12.5 µg/mL (≈ 17 µM) | 3.13 µg/mL (≈ 4.25 µM) | > 50 µg/mL | 12.5 µg/mL (≈ 17 µM) | N=C(N)NCCc1cc(CCNC(=N)N)cc(-c2csc(-c3cccc(-c4nc(-c5cc(CCNC(=N)N)cc(CCNC(=N)N)c5)cs4)c3)n2)c1 [Compound 137] | 26.6 µg/mL (≈ 36.1 µM) | 55.6 µg/mL (≈ 75.4 µM)
6.25 µg/mL (≈ 10.4 µM) | 3.13 µg/mL (≈ 5.23 µM) | 0.195 µg/mL (≈ 0.326 µM) | 6.25 µg/mL (≈ 10.4 µM) | 6.25 µg/mL (≈ 10.4 µM) | NCCCOc1cc(OCCCN)cc(-c2cccc(-c3cccc(-c4cc(OCCCN)cc(OCCCN)c4)c3)c2)c1 [Compound 144] | 320 µg/mL (≈ 534 µM) | 448 µg/mL (≈ 748 µM)
12.5 µg/mL (≈ 21.6 µM) | 1.56 µg/mL (≈ 2.7 µM) | 0.39 µg/mL (≈ 0.674 µM) | 6.25 µg/mL (≈ 10.8 µM) | 6.25 µg/mL (≈ 10.8 µM) | NCCCn1c2cc(-c3cccc(N(CCN)CCN)c3)ccc2c2ccc(-c3cccc(N(CCN)CCN)c3)cc21 [Compound 160] | 451 µg/mL (≈ 779 µM) | 853 µg/mL (≈ 1470 µM)
6.25 µg/mL (≈ 9.63 µM) | 3.13 µg/mL (≈ 4.82 µM) | 0.39 µg/mL (≈ 0.601 µM) | 6.25 µg/mL (≈ 9.63 µM) | 1.56 µg/mL (≈ 2.4 µM) | NCCCOc1cc(OCCCN)cc(-c2ccc(C(F)(F)c3ccc(-c4cc(OCCCN)cc(OCCCN)c4)cc3)cc2)c1 [Compound 166] | 84 µg/mL (≈ 129 µM) | 137 µg/mL (≈ 211 µM)
6.25 µg/mL (≈ 7.84 µM) | 0.78 µg/mL (≈ 0.979 µM) | 0.049 µg/mL (≈ 0.0615 µM) | 0.78 µg/mL (≈ 0.979 µM) | 0.78 µg/mL (≈ 0.979 µM) | N=C(N)NCCCOc1cc(OCCCNC(=N)N)cc(-c2ccc3sc4ccc(-c5cc(OCCCNC(=N)N)cc(OCCCNC(=N)N)c5)cc4c3c2)c1 [Compound 172] | 41.4 µg/mL (≈ 51.9 µM) | 35.7 µg/mL (≈ 44.8 µM)
12.5 µg/mL (≈ 17.8 µM) | 6.25 µg/mL (≈ 8.9 µM) | 1.56 µg/mL (≈ 2.22 µM) | 25 µg/mL (≈ 35.6 µM) | 6.25 µg/mL (≈ 8.9 µM) | NCCCOc1cc(OCCCN)cc(-c2ccc3sc4ccc(-c5cc(OCCCN)c(OCCCN)c(OCCCN)c5)cc4c3c2)c1 [Compound 182] | 78.2 µg/mL (≈ 111 µM) | 173 µg/mL (≈ 246 µM)
6.25 µg/mL (≈ 10.1 µM) | 1.56 µg/mL (≈ 2.52 µM) | 3.9 to 7.8 µg/mL (≈ 6.3 to 12.6 µM) | 1.56 µg/mL (≈ 2.52 µM) | 6.25 µg/mL (≈ 10.1 µM) | N=C(N)NCCc1cc(C#Cc2cccc(C#Cc3cc(CCNC(=N)N)cc(CCNC(=N)N)c3)c2)cc(CCNC(=N)N)c1 [Compound 189] | 131 µg/mL (≈ 212 µM) | 256 µg/mL (≈ 413 µM)
6.25 µg/mL (≈ 8.35 µM) | 3.13 µg/mL (≈ 4.18 µM) | 1.56 µg/mL (≈ 2.08 µM) | 6.25 µg/mL (≈ 8.35 µM) | 3.13 µg/mL (≈ 4.18 µM) | N=C(N)NCC(CNC(=N)N)c1cc(Br)cc(C#Cc2cccc(C#Cc3cc(Br)cc(C(CNC(=N)N)CNC(=N)N)c3)c2)c1 (stereo not drawn) [Compound 191] | 17.4 µg/mL (≈ 23.3 µM) | 70.3 µg/mL (≈ 93.9 µM)
6.25 µg/mL (≈ 9.55 µM) | 1.56 µg/mL (≈ 2.38 µM) | 0.39 µg/mL (≈ 0.596 µM) | 1.56 µg/mL (≈ 2.38 µM) | 1.56 µg/mL (≈ 2.38 µM) | N=C(N)NCCc1cc(C#Cc2cc(C#Cc3cc(CCNC(=N)N)cc(CCNC(=N)N)c3)c(F)cc2F)cc(CCNC(=N)N)c1 [Compound 193] | 62.4 µg/mL (≈ 95.3 µM) | 178 µg/mL (≈ 272 µM)
